Experimental data taken from ChEMBL document CHEMBL1201862, “PubChem BioAssay data set” (2004).
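A five-concentration, 48-hour dose response in 96-well plates underlies each endpoint, interpolated linearly between surrounding concentrations. Here, GI50 denotes the concentration required for 50% inhibition of growth.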 The source made the active and inactive calls. Rule as the data show it: active = GI50 up to about 1.1 µM and inactive = higher.

Experiments:
Assay in all cases: growth of human tumour cells (NCI), 48 h
[1] = test system: NCI-H460
[2] = test system: SNB-75
[3] = test system: T47D
[4] = test system: SW-620
[5] = test system: UACC-62
[6] = test system: SK-MEL-28
[7] = test system: BT-549
[8] = test system: HOP-62
[9] = test system: UO-31
[10] = test system: COLO 205
[11] = test system: HCT-15
[12] = test system: RPMI-8226
[13] = test system: MDA-MB-231
[14] = test system: HOP-92
[15] = test system: RXF 393
[16] = test system: K562
[17] = test system: HL-60

Q: For `CN(C)CCCOc1nc2c(c(=O)n(C)c(=O)n2C)n1C.SC1=NC=NC2=NC=NC12`, which GI50 [1] is on record?
A: 8.43 µM (inactive)

Q: What about the GI50 [2] of the same molecule?
A: 6.12 µM (inactive)

Q: What about the GI50 [3] of the same molecule?
A: 68.9 µM (inactive)

Q: What about the GI50 [4] of the same molecule?
A: 4.45 µM (inactive)

Q: And the GI50 [5]?
A: 1.14 µM (inactive)

Q: What about the GI50 [6] of the same molecule?
A: 55.5 µM (inactive)

Q: What about the GI50 [7] of the same molecule?
A: 11.3 µM (inactive)

Q: And the GI50 [8]?
A: 18.5 µM (inactive)

Q: And the GI50 [9]?
A: 3.73 µM (inactive)

Q: What about the GI50 [10] of the same molecule?
A: 4.3 µM (inactive)

Q: And the GI50 [11]?
A: 3.14 µM

Q: What about the GI50 [12] of the same molecule?
A: 0.757 µM (active)

Q: And the GI50 [13]?
A: 1.69 µM (inactive)

Q: What about the GI50 [14] of the same molecule?
A: > 100 µM (inactive)

Q: What about the GI50 [15] of the same molecule?
A: > 100 µM (inactive)

Q: What about the GI50 [16] of the same molecule?
A: 1.14 µM (inactive)

Q: With `COC(=O)C1=C(OC(=O)/C(=C/c2ccccc2)c2ccccc2)C(C(=O)OC)[C@@]2(O)[C@@H](C(=O)OC)[C@H](C)C[C@@H]1[C@@H]2C(=O)OC` (some centres not stated) as the molecule, how does the GI50 [1] read?
A: > 100 µM (inactive)

Q: And the GI50 [2]?
A: > 100 µM (inactive)

Q: What about the GI50 [3] of the same molecule?
A: > 100 µM (inactive)

Q: And the GI50 [4]?
A: > 100 µM (inactive)

Q: What about the GI50 [5] of the same molecule?
A: > 100 µM (inactive)

Q: What about the GI50 [6] of the same molecule?
A: > 100 µM (inactive)

Q: And the GI50 [7]?
A: > 100 µM (inactive)

Q: And the GI50 [8]?
A: > 100 µM (inactive)

Q: And the GI50 [9]?
A: > 100 µM (inactive)

Q: What about the GI50 [10] of the same molecule?
A: > 100 µM (inactive)

Q: And the GI50 [17]?
A: > 100 µM (inactive)

Q: What about the GI50 [11] of the same molecule?
A: > 100 µM

Q: And the GI50 [12]?
A: 2.67 µM (inactive)

Q: And the GI50 [13]?
A: > 100 µM (inactive)

Q: What about the GI50 [15] of the same molecule?
A: 66.2 µM (inactive)

Q: And the GI50 [16]?
A: 6.11 µM (inactive)

Q: For `C/C(=N\Nc1nc2ccccc2s1)c1ccncn1`, which GI50 [1] is on record?
A: 0.438 µM (active)

Q: And the GI50 [2]?
A: 4.1 µM (inactive)

Q: And the GI50 [3]?
A: 0.612 µM (active)

Q: And the GI50 [4]?
A: 0.229 µM (active)

Q: What about the GI50 [5] of the same molecule?
A: 1.44 µM (inactive)

Q: And the GI50 [6]?
A: 2 µM (inactive)

Q: And the GI50 [7]?
A: 4.15 µM (inactive)

Q: What about the GI50 [8] of the same molecule?
A: 2.28 µM (inactive)

Q: What about the GI50 [9] of the same molecule?
A: 0.387 µM (active)

Q: And the GI50 [10]?
A: 0.126 µM (active)

Q: What about the GI50 [11] of the same molecule?
A: 0.661 µM

Q: What about the GI50 [12] of the same molecule?
A: 1 µM (active)

Q: And the GI50 [13]?
A: 0.499 µM (active)

Q: What about the GI50 [14] of the same molecule?
A: 0.817 µM (active)

Q: What about the GI50 [15] of the same molecule?
A: 7.74 µM (inactive)

Q: What about the GI50 [16] of the same molecule?
A: 0.973 µM (active)

Q: Which GI50 [1] does the source give for `O=C1Cc2c(-c3cccs3)cc(-c3ccccc3)nc2-c2ccccc2N1` here?
A: 24 µM (inactive)

Q: And the GI50 [2]?
A: 0.0441 µM (active)

Q: And the GI50 [3]?
A: 26.4 µM (inactive)

Q: What about the GI50 [4] of the same molecule?
A: > 100 µM (inactive)

Q: What about the GI50 [5] of the same molecule?
A: > 100 µM (inactive)

Q: What about the GI50 [6] of the same molecule?
A: > 100 µM (inactive)

Q: What about the GI50 [7] of the same molecule?
A: > 100 µM (inactive)

Q: What about the GI50 [8] of the same molecule?
A: 24.7 µM (inactive)

Q: What about the GI50 [9] of the same molecule?
A: > 100 µM (inactive)

Q: What about the GI50 [10] of the same molecule?
A: 43.4 µM (inactive)

Q: And the GI50 [11]?
A: 40.1 µM

Q: What about the GI50 [12] of the same molecule?
A: > 100 µM (inactive)

Q: And the GI50 [13]?
A: 9.48 µM (inactive)

Q: And the GI50 [14]?
A: > 100 µM (inactive)

Q: What about the GI50 [15] of the same molecule?
A: 32.8 µM (inactive)

Q: What about the GI50 [16] of the same molecule?
A: > 100 µM (inactive)

Q: How did the GI50 [1] turn out when `CC(C)SC(NC(=O)C1C(C)(C)CCC1(C)C)C(=O)O` (configuration not stated) was run?
A: > 100 µM (inactive)

Q: What about the GI50 [2] of the same molecule?
A: > 100 µM (inactive)

Q: What about the GI50 [4] of the same molecule?
A: > 100 µM (inactive)

Q: And the GI50 [5]?
A: > 100 µM (inactive)

Q: What about the GI50 [6] of the same molecule?
A: > 100 µM (inactive)

Q: And the GI50 [8]?
A: > 100 µM (inactive)

Q: And the GI50 [9]?
A: > 100 µM (inactive)

Q: And the GI50 [10]?
A: > 100 µM (inactive)

Q: And the GI50 [17]?
A: > 100 µM (inactive)

Q: And the GI50 [11]?
A: > 100 µM

Q: And the GI50 [12]?
A: > 100 µM (inactive)

Q: And the GI50 [13]?
A: > 100 µM (inactive)

Q: What about the GI50 [14] of the same molecule?
A: > 100 µM (inactive)

Q: What about the GI50 [16] of the same molecule?
A: > 100 µM (inactive)

Q: Which GI50 [1] does the source give for `CC(C)(C)OC(=O)C1CC[C@@H](CC(=O)Oc2ccc([N+](=O)[O-])cc2)N1` (some centres not stated) here?
A: > 100 µM (inactive)

Q: And the GI50 [2]?
A: > 100 µM (inactive)

Q: And the GI50 [4]?
A: > 100 µM (inactive)

Q: And the GI50 [5]?
A: > 100 µM (inactive)

Q: What about the GI50 [6] of the same molecule?
A: > 100 µM (inactive)

Q: And the GI50 [9]?
A: > 100 µM (inactive)

Q: And the GI50 [10]?
A: > 100 µM (inactive)

Q: And the GI50 [17]?
A: > 100 µM (inactive)

Q: And the GI50 [11]?
A: > 100 µM

Q: And the GI50 [12]?
A: > 100 µM (inactive)

Q: And the GI50 [13]?
A: > 100 µM (inactive)

Q: What about the GI50 [14] of the same molecule?
A: > 100 µM (inactive)

Q: What about the GI50 [15] of the same molecule?
A: > 100 µM (inactive)

Q: Which results are given for `CCn1c(SCC(=O)NNC(=S)Nc2ccc(F)cc2)nc2ccccc2c1=O`?
A: GI50 [1]: 0.472 µM (active); GI50 [2]: > 100 µM (inactive); GI50 [3]: 57.7 µM (inactive); GI50 [4]: > 100 µM (inactive); GI50 [5]: 58.7 µM (inactive); GI50 [6]: > 100 µM (inactive); GI50 [7]: > 100 µM (inactive); GI50 [8]: > 100 µM (inactive); GI50 [9]: 17.9 µM (inactive); GI50 [10]: > 100 µM (inactive); GI50 [17]: > 100 µM (inactive); GI50 [11]: 74.6 µM; GI50 [12]: 63.5 µM (inactive); GI50 [13]: > 100 µM (inactive); GI50 [15]: > 100 µM (inactive); GI50 [16]: 74.5 µM (inactive)

Q: Which results are given for `O=C1CC2(CCCc3sccc32)C(=O)N1` (configuration not stated)?
A: GI50 [1]: > 100 µM (inactive); GI50 [2]: > 100 µM (inactive); GI50 [3]: > 100 µM (inactive); GI50 [4]: > 100 µM (inactive); GI50 [5]: > 100 µM (inactive); GI50 [6]: > 100 µM (inactive); GI50 [8]: > 100 µM (inactive); GI50 [9]: > 100 µM (inactive); GI50 [10]: > 100 µM (inactive); GI50 [17]: > 100 µM (inactive); GI50 [11]: > 100 µM; GI50 [12]: > 100 µM (inactive); GI50 [13]: > 100 µM (inactive); GI50 [14]: > 100 µM (inactive); GI50 [15]: > 100 µM (inactive); GI50 [16]: > 100 µM (inactive)

Q: What does the source list for `O=C(CSCC(=O)N/N=C\c1cc(Br)cc(Br)c1O)N/N=C\c1cc(Br)cc(Br)c1O`?
A: GI50 [1]: 44.6 µM (inactive); GI50 [2]: 24 µM (inactive); GI50 [3]: 32.1 µM (inactive); GI50 [4]: 37 µM (inactive); GI50 [5]: 18 µM (inactive); GI50 [6]: 26.4 µM (inactive); GI50 [7]: 37.4 µM (inactive); GI50 [8]: 29.9 µM (inactive); GI50 [9]: 15.7 µM (inactive); GI50 [10]: 33.7 µM (inactive); GI50 [11]: 22.5 µM; GI50 [14]: 19.5 µM (inactive); GI50 [15]: 83.9 µM (inactive); GI50 [16]: 21.9 µM (inactive)
